Experiments:
[1] = tested on: Staphylococcus aureus (ATCC 29213); test: Antibiotic susceptibility by glucose consumption in culture medium, blood culture bottle inoculum (Example 1); assay type: cell-based; details: for Glucose concentration t=0: 0 minutes; for Glucose concentration t=60: 60 minutes; for Glucose concentration t=120: 120 minutes; for Glucose concentration t=180: 180 minutes; for Glucose concentration t=240: 240 minutes; for dC/dT: rate of change in glucose concentration;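 as to dC/dT: rate calculated between the 60 and 180 min readings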
Protocol: (§1) Strains of Escherichia coli (ATCC 25922), Enterococcus faecalis (ATCC 29212) and Staphylococcus aureus (ATCC 29213) were inoculated in blood culture bottles (SVA, Uppsala, Sweden) and cultivated according to the manufacturer's instructions until positive.
(§2) Medium from each blood culture bottle was diluted 1:100 with cation adjusted Mueller-Hinton broth (SVA, Uppsala, Sweden) supplemented with glucose to a concentration of 1.0 mg/mL.
(§3) Table 1: Concentrations of antibiotic agents are given in µg/mL.
(§4) Glucose concentrations were measured at 0, 60, 120, 180, and 240 minutes using a WaveSense Jazz glucometer (AgaMatrix, Inc., Salem, NH, USA) with accompanying test strips.
(§5) Susceptibility scores corresponding to MIC values were calculated as described above. A 80% threshold was applied, i.e. the lowest concentration of antibiotic that entailed a rate of change in glucose concentration that was equal to or less than 80% of the reference was selected as the Minimal Inhibitory Concentration. The rate of change was calculated between the measurements at 60 and 180 minutes.

[2] = tested on: Enterococcus faecalis (ATCC 29212); test: as above; assay type: cell-based; details: for Glucose concentration t=0: 0 minutes; for Glucose concentration t=60: 60 minutes; for Glucose concentration t=120: 120 minutes; for Glucose concentration t=180: 180 minutes; for dC/dT: rate of change in glucose concentration; for Glucose concentration t=240: 240 minutes;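 as to dC/dT: rate calculated between the 60 and 180 min readings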
Protocol: as §1, §2, §3, §4, §5

Gentamicin
MIC Measured ([1]; S.aureus, 80% threshold of rate of change vs reference, between 60 and 180 minutes, obtained in 4 hours): 0.25 µg/mL | F=the rate of change in glucose concentration in relation to the reference ([1]; [Ab] 0,5 µg/mL): 57% | Glucose concentration t=0 ([1]; [Ab] 0,5 µg/mL): 143 | Glucose concentration t=60 ([1]; [Ab] 0,5 µg/mL): 154 | Glucose concentration t=120 ([1]; [Ab] 0,5 µg/mL): 137 | Glucose concentration t=180 ([1]; [Ab] 0,5 µg/mL): 116 | Glucose concentration t=240 ([1]; [Ab] 0,5 µg/mL): 78 | dC/dT ([1]; [Ab] 0,5 µg/mL): 19 | F=the rate of change in glucose concentration in relation to the reference ([1]; [Ab] 0,25 µg/mL): 66% | Glucose concentration t=0 ([1]; [Ab] 0,25 µg/mL): 143 | Glucose concentration t=60 ([1]; [Ab] 0,25 µg/mL): 146 | Glucose concentration t=120 ([1]; [Ab] 0,25 µg/mL): 140 | Glucose concentration t=180 ([1]; [Ab] 0,25 µg/mL): 102 | Glucose concentration t=240 ([1]; [Ab] 0,25 µg/mL): 55 | dC/dT ([1]; [Ab] 0,25 µg/mL): 22 | F=the rate of change in glucose concentration in relation to the reference ([1]; [Ab] 1 µg/mL): 30% | Glucose concentration t=0 ([1]; [Ab] 1 µg/mL): 137 | Glucose concentration t=60 ([1]; [Ab] 1 µg/mL): 154 | Glucose concentration t=120 ([1]; [Ab] 1 µg/mL): 146 | Glucose concentration t=180 ([1]; [Ab] 1 µg/mL): 134 | Glucose concentration t=240 ([1]; [Ab] 1 µg/mL): 119 | dC/dT ([1]; [Ab] 1 µg/mL): 10 | F=the rate of change in glucose concentration in relation to the reference ([1]; [Ab] 2 µg/mL): 12% | Glucose concentration t=0 ([1]; [Ab] 2 µg/mL): 144 | Glucose concentration t=60 ([1]; [Ab] 2 µg/mL): 154 | Glucose concentration t=180 ([1]; [Ab] 2 µg/mL): 146 | Glucose concentration t=240 ([1]; [Ab] 2 µg/mL): 148 | dC/dT ([1]; [Ab] 2 µg/mL): 4 | F=the rate of change in glucose concentration in relation to the reference ([1]; [Ab] 4 µg/mL): 10% | Glucose concentration t=60 ([1]; [Ab] 4 µg/mL): 157 | Glucose concentration t=120 ([1]; [Ab] 4 µg/mL): 147 | Glucose concentration t=180 ([1]; [Ab] 4 µg/mL): 150 | Glucose concentration t=240 ([1]; [Ab] 4 µg/mL): 149 | dC/dT ([1]; [Ab] 4 µg/mL): 4 | F=the rate of change in glucose concentration in relation to the reference ([1]; [Ab] 8 µg/mL): 0% | Glucose concentration t=0 ([1]; [Ab] 8 µg/mL): 142 | Glucose concentration t=60 ([1]; [Ab] 8 µg/mL): 154 | Glucose concentration t=120 ([1]; [Ab] 8 µg/mL): 150 | Glucose concentration t=180 ([1]; [Ab] 8 µg/mL): 154 | Glucose concentration t=240 ([1]; [Ab] 8 µg/mL): 140 | dC/dT ([1]; [Ab] 8 µg/mL): 0 | F=the rate of change in glucose concentration in relation to the reference ([1]; [Ab] 16 µg/mL): 0% | Glucose concentration t=0 ([1]; [Ab] 16 µg/mL): 139 | Glucose concentration t=60 ([1]; [Ab] 16 µg/mL): 145 | Glucose concentration t=120 ([1]; [Ab] 16 µg/mL): 150 | Glucose concentration t=180 ([1]; [Ab] 16 µg/mL): 145 | Glucose concentration t=240 ([1]; [Ab] 16 µg/mL): 145 | dC/dT ([1]; [Ab] 16 µg/mL): 0 | F=the rate of change in glucose concentration in relation to the reference ([1]; [Ab] 32 µg/mL): 3% | Glucose concentration t=0 ([1]; [Ab] 32 µg/mL): 144 | Glucose concentration t=60 ([1]; [Ab] 32 µg/mL): 148 | Glucose concentration t=120 ([1]; [Ab] 32 µg/mL): 145 | Glucose concentration t=180 ([1]; [Ab] 32 µg/mL): 146 | Glucose concentration t=240 ([1]; [Ab] 32 µg/mL): 145 | dC/dT ([1]; [Ab] 32 µg/mL): 1 | MIC Measured ([2]; E.faecalis, 80% threshold of rate of change vs reference, between 60 and 180 minutes, obtained in 4 hours): 2 µg/mL | F=the rate of change in glucose concentration in relation to the reference ([2]; [Ab] 0,5 µg/mL): 148% | Glucose concentration t=0 ([2]; [Ab] 0,5 µg/mL): 146 | Glucose concentration t=60 ([2]; [Ab] 0,5 µg/mL): 160 | Glucose concentration t=120 ([2]; [Ab] 0,5 µg/mL): 138 | Glucose concentration t=180 ([2]; [Ab] 0,5 µg/mL): 97 | dC/dT ([2]; [Ab] 0,5 µg/mL): 53 | F=the rate of change in glucose concentration in relation to the reference ([2]; [Ab] 0,25 µg/mL): 144% | Glucose concentration t=0 ([2]; [Ab] 0,25 µg/mL): 142 | Glucose concentration t=60 ([2]; [Ab] 0,25 µg/mL): 156 | Glucose concentration t=120 ([2]; [Ab] 0,25 µg/mL): 143 | Glucose concentration t=180 ([2]; [Ab] 0,25 µg/mL): 87 | dC/dT ([2]; [Ab] 0,25 µg/mL): 52 | F=the rate of change in glucose concentration in relation to the reference ([2]; [Ab] 1 µg/mL): 106% | Glucose concentration t=0 ([2]; [Ab] 1 µg/mL): 145 | Glucose concentration t=60 ([2]; [Ab] 1 µg/mL): 150 | Glucose concentration t=120 ([2]; [Ab] 1 µg/mL): 138 | Glucose concentration t=180 ([2]; [Ab] 1 µg/mL): 100 | Glucose concentration t=240 ([2]; [Ab] 1 µg/mL): 36 | dC/dT ([2]; [Ab] 1 µg/mL): 38 | F=the rate of change in glucose concentration in relation to the reference ([2]; [Ab] 2 µg/mL): 75% | Glucose concentration t=0 ([2]; [Ab] 2 µg/mL): 147 | Glucose concentration t=60 ([2]; [Ab] 2 µg/mL): 156 | Glucose concentration t=120 ([2]; [Ab] 2 µg/mL): 143 | Glucose concentration t=180 ([2]; [Ab] 2 µg/mL): 110 | Glucose concentration t=240 ([2]; [Ab] 2 µg/mL): 75 | dC/dT ([2]; [Ab] 2 µg/mL): 27 | F=the rate of change in glucose concentration in relation to the reference ([2]; [Ab] 4 µg/mL): 46% | Glucose concentration t=0 ([2]; [Ab] 4 µg/mL): 147 | Glucose concentration t=60 ([2]; [Ab] 4 µg/mL): 154 | Glucose concentration t=120 ([2]; [Ab] 4 µg/mL): 151 | Glucose concentration t=180 ([2]; [Ab] 4 µg/mL): 118 | Glucose concentration t=240 ([2]; [Ab] 4 µg/mL): 104 | dC/dT ([2]; [Ab] 4 µg/mL): 17 | F=the rate of change in glucose concentration in relation to the reference ([2]; [Ab] 8 µg/mL): 14% | Glucose concentration t=0 ([2]; [Ab] 8 µg/mL): 143 | Glucose concentration t=60 ([2]; [Ab] 8 µg/mL): 155 | Glucose concentration t=120 ([2]; [Ab] 8 µg/mL): 134 | Glucose concentration t=180 ([2]; [Ab] 8 µg/mL): 136 | Glucose concentration t=240 ([2]; [Ab] 8 µg/mL): 140 | dC/dT ([2]; [Ab] 8 µg/mL): 5 | F=the rate of change in glucose concentration in relation to the reference ([2]; [Ab] 16 µg/mL): 18% | Glucose concentration t=0 ([2]; [Ab] 16 µg/mL): 147 | Glucose concentration t=60 ([2]; [Ab] 16 µg/mL): 160 | Glucose concentration t=120 ([2]; [Ab] 16 µg/mL): 152 | Glucose concentration t=180 ([2]; [Ab] 16 µg/mL): 155 | dC/dT ([2]; [Ab] 16 µg/mL): 6 | F=the rate of change in glucose concentration in relation to the reference ([2]; [Ab] 32 µg/mL): 3% | Glucose concentration t=0 ([2]; [Ab] 32 µg/mL): 143 | Glucose concentration t=60 ([2]; [Ab] 32 µg/mL): 151 | Glucose concentration t=180 ([2]; [Ab] 32 µg/mL): 142 | Glucose concentration t=240 ([2]; [Ab] 32 µg/mL): 148 | dC/dT ([2]; [Ab] 32 µg/mL): 1

— patent EP3717657B1, “A SYSTEM FOR ASSESSING MICROBIAL SUSCEPTIBILITY TO ANTIBIOTIC AGENTS” (Ascilion AB, priority 2017, dated 2019)
